This is an account of results in patent publication US20070299110A1, “Novel Tetrazole Derivatives as Positive Allosteric Modulators of Metabotropic Glutamate” (priority 2004, published 2007).

One data set relates to Male C57BL6/j mice. The data set can be described thus: Amphetamine-induced locomotor activity in mice (amphetamine model of schizophrenia). To be noted: 30 mg/kg ip, 30 minutes before amphetamine sulphate 3.0 mg/kg s.c., distance traveled measured for 60 minutes, p<0.01 vs vehicle-amphetamine. It counts as in vivo. An excerpt:
Amphetamine-induced increases in locomotor ambulation are well known and are widely used as a model of the positive symptoms of schizophrenia. This model is based on evidence that amphetamine increases motor behaviors and can induce a psychotic state in humans (Yui et al. (2000) Ann NY Acad Sci 914:1-12). Further, it is well known that amphetamine-induced increases in locomotor activity are blocked by antipsychotics drugs that are effective in the treatment of schizophrenia (Ant (1995) Eur J Pharmacol 283:55-62). […]
Assessment of locomotor (ambulatory) activity: The effects of compounds on amphetamine-induced locomotor activation in mice were tested. […] Locomotor activity (ambulations) was monitored by a videotracking system (VideoTrack, Viewpoint, Champagne au Mont d'Or, France) that recorded the ambulatory movements of mice. […] Mice were placed into the locomotor boxes immediately after the amphetamine injection and their locomotor activity, defined as the distance traveled in centimeters (cm), was measured for 60 minutes. […]
Statistical analyses: Statistical analyses were performed using GraphPad PRISM statistical software (GraphPad, San Diego, Calif., USA). Data were analyzed using an unpaired t-test. […]

Consider `O=C(c1ccc(F)cc1)N1CCC[C@H](n2nnc(-c3ccc(F)cc3)n2)C1` [Example 1, (4-Fluoro-phenyl)-{(S)-3-[5-(4-fluoro-phenyl)-tetrazol-2-yl]-piperidin-1-yl}-methanone], for which the melting point (as a rule, the temperature of the solid-liquid transition) fell in the range of 109 to 110 °C. Also, the “increase in locomotor activity induced by amphetamine” value in the data set with Male C57BL6/j mice (listed as #1) is on record as “significantly attenuate”. The “increase in locomotor activity induced by amphetamine” value with Male C57BL6/j mice (listed as example 1) is on record as “significantly attenuated”.
In turn, `O=C(c1ccc(F)cc1)N1CCCC(n2nnc(-c3ccc(F)cc3)n2)C1` (stereo not shown) [Example 2, (4-Fluoro-phenyl)-{3-[5-(4-fluoro-phenyl)-tetrazol-2-yl]-piperidin-1-yl}-methanone] came in with a melting point of 137 to 139 °C.
In turn, `O=C(c1ccc(F)nc1)N1CCC[C@H](n2nnc(-c3ccc(F)cc3)n2)C1` [Example 21, {(S)-3-[5-(4-Fluoro-phenyl)-tetrazol-2-yl]-piperidin-1-yl}-(6-fluoro-pyridin-3-yl)-methanone] gave a melting point of 109 to 110 °C.
Consider `O=C(c1ccc(F)c(F)c1)N1CCC[C@H](n2nnc(-c3ccc(F)cc3)n2)C1` [Example 24, (3,4-Difluoro-phenyl)-{(S)-3-[5-(4-fluoro-phenyl)-tetrazol-2-yl]-piperidin-1-yl}-methanone], for which the melting point was 123 to 128 °C.
For the compound `O=C(c1ccc(F)cc1F)N1CCC[C@H](n2nnc(-c3ccc(F)cc3)n2)C1` [Example 25, (2,4-Difluoro-phenyl)-{(S)-3-[5-(4-fluoro-phenyl)-tetrazol-2-yl]-piperidin-1-yl}-methanone], the melting point was in the range of 65 to 68 °C.
